Source: ChEMBL document CHEMBL1177794, “Broad spectrum alkynyl inhibitors of T315I Bcr-Abl” (Bioorg Med Chem Lett, 2010)

Legend:
BaF3 [1] = test: Antiproliferative activity against mouse BAF3 cells expressing wild type Bcr-Abl; format: functional, cell-based
BaF3 [2] = test: Antiproliferative activity against mouse BAF3 cells; format: functional, cell-based
[3] = molecular target: AP2-associated protein kinase 1 (Homo sapiens) (UniProt Q2M2I8); test: Inhibition of AAK1 at 10 uM; details: values are per cent of control
[4] = tested on: Tyrosine-protein kinase ABL1 (Homo sapiens), P00519 [F317L]; test: Inhibition of phosphorylated ABL1 F317L mutant at 10 uM; details: values are per cent of control
[5] = tested on: Tyrosine-protein kinase ABL1 (Homo sapiens), P00519 [Y253F]; test: Inhibition of phosphorylated ABL1 Y253F mutant at 10 uM; details: values are per cent of control
[6] = molecular target: Mitogen-activated protein kinase kinase kinase 6 (Homo sapiens) (UniProt O95382); test: Inhibition of ASK2 at 10 uM; details: values are per cent of control
[7] = molecular target: BMP-2-inducible protein kinase (Homo sapiens) (UniProt Q9NSY1); test: Inhibition of BIKE at 10 uM; details: values are per cent of control
Sequence of BMP-2-inducible protein kinase (Homo sapiens) (Q9NSY1 whole entry, looked up): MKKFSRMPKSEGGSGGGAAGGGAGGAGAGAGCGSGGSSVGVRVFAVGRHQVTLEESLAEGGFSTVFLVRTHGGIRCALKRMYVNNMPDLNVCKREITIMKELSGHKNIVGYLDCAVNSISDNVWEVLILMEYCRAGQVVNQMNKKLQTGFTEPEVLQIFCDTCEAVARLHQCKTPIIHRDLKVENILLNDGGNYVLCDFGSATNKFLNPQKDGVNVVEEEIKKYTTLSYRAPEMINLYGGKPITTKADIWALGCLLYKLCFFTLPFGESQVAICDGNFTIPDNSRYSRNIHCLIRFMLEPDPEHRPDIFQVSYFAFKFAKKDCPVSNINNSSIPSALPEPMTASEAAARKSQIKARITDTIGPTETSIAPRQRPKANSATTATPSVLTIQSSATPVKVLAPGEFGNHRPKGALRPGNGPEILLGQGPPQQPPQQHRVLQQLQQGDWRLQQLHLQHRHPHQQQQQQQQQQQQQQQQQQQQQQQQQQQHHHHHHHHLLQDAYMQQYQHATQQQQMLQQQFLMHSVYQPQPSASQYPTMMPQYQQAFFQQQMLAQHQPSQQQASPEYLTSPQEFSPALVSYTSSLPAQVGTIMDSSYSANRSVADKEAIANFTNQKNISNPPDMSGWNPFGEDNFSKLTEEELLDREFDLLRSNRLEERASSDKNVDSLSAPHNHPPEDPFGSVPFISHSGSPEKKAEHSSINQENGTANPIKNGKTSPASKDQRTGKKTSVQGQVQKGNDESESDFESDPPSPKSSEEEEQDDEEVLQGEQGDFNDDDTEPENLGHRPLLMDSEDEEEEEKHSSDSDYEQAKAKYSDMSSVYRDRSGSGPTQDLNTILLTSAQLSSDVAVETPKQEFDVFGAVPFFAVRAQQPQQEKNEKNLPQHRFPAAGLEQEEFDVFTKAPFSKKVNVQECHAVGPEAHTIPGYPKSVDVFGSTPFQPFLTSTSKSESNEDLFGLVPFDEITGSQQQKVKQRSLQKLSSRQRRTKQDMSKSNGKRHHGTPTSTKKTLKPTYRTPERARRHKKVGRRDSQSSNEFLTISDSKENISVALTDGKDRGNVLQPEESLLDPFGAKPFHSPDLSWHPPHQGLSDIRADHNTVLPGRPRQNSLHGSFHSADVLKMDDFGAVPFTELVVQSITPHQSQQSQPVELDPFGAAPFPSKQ

[8] = molecular target: Serine/threonine-protein kinase BRSK1 (Homo sapiens) (UniProt Q8TDC3); test: Inhibition of BRSK1 at 10 uM; details: values are per cent of control
[9] = molecular target: Peripheral plasma membrane protein CASK (Homo sapiens) (UniProt O14936); test: Inhibition of CASK at 10 uM; details: values are per cent of control
[10] = molecular target: Dual specificity protein kinase CLK2 (Homo sapiens) (UniProt P49760); test: Inhibition of CLK2 at 10 uM; details: values are per cent of control
[11] = molecular target: Casein kinase I isoform alpha-like (Homo sapiens) (UniProt Q8N752); test: Inhibition of CSNK1A1L at 10 uM; details: values are per cent of control
[12] = molecular target: Serine/threonine-protein kinase DCLK3 (Homo sapiens) (UniProt Q9C098); test: Inhibition of DCAMKL3 at 10 uM; details: values are per cent of control
[13] = molecular target: Ephrin type-A receptor 1 (Homo sapiens) (UniProt P21709); test: Inhibition of EPHA1 at 10 uM; details: values are per cent of control
[14] = molecular target: Ephrin type-A receptor 2 (Homo sapiens) (UniProt P29317); test: Inhibition of EPHA2 at 10 uM; details: values are per cent of control
[15] = molecular target: Mitogen-activated protein kinase 4 (Homo sapiens) (UniProt P31152); test: Inhibition of ERK4 at 10 uM; details: values are per cent of control
[16] = molecular target: Serine/threonine-protein kinase/endoribonuclease IRE1 (Homo sapiens) (UniProt O75460); test: Inhibition of ERN1 at 10 uM; details: values are per cent of control
[17] = tested on: Receptor-type tyrosine-protein kinase FLT3 (Homo sapiens), P36888 [D835Y]; test: Inhibition of FLT3 D835Y mutant at 10 uM; details: values are per cent of control
[18] = molecular target: Rhodopsin kinase GRK7 (Homo sapiens) (UniProt Q8WTQ7); test: Inhibition of GRK7 at 10 uM; details: values are per cent of control
[19] = molecular target: Homeodomain-interacting protein kinase 3 (Homo sapiens) (UniProt Q9H422); test: Inhibition of HIPK3 at 10 uM; details: values are per cent of control
[20] = tested on: Mast/stem cell growth factor receptor Kit (Homo sapiens), P10721 [L576P]; test: Inhibition of KIT L576P mutant at 10 uM; details: values are per cent of control
[21] = molecular target: Serine/threonine-protein kinase MAK (Homo sapiens) (UniProt P20794); test: Inhibition of MAK at 10 uM; details: values are per cent of control
[22] = molecular target: Mitogen-activated protein kinase kinase kinase kinase 5 (Homo sapiens) (UniProt Q9Y4K4); test: Inhibition of MAP4K5 at 10 uM; details: values are per cent of control
[23] = molecular target: Dual specificity mitogen-activated protein kinase kinase 1 (Homo sapiens) (UniProt Q02750); test: Inhibition of MEK1 at 10 uM; details: values are per cent of control
[24] = molecular target: Serine/threonine-protein kinase PAK 1 (Homo sapiens) (UniProt Q13153); test: Inhibition of PAK1 at 10 uM
[25] = molecular target: Serine/threonine-protein kinase PAK 6 (Homo sapiens) (UniProt Q9NQU5); test: Inhibition of PAK6 at 10 uM
Sequence of Serine/threonine-protein kinase PAK 6 (Homo sapiens) (Q9NQU5 whole entry, looked up): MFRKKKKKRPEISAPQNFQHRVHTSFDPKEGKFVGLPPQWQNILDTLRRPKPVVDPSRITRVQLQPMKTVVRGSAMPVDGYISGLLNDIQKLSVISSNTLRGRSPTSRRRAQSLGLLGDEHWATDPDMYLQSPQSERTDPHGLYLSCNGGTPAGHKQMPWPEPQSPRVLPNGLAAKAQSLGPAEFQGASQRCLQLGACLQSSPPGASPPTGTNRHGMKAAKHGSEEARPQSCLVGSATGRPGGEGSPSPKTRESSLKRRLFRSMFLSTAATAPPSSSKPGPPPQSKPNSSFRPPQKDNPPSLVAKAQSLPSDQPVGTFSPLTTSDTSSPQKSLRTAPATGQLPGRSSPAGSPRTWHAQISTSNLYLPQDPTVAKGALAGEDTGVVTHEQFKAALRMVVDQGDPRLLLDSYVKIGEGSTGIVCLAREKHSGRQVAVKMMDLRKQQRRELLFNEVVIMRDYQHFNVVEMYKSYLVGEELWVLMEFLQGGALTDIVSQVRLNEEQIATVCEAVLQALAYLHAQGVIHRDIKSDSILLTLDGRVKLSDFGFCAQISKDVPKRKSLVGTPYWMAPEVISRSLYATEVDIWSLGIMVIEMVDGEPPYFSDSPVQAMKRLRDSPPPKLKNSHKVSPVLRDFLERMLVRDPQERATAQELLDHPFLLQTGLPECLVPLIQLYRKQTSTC

[26] = molecular target: Serine/threonine-protein kinase 36 (Homo sapiens) (UniProt Q9NRP7); test: Inhibition of STK36 at 10 uM
[27] = molecular target: Tyrosine-protein kinase SYK (Homo sapiens) (UniProt P43405); test: Inhibition of SYK at 10 uM
[28] = molecular target: Dual specificity testis-specific protein kinase 1 (Homo sapiens) (UniProt Q15569); test: Inhibition of TESK1 at 10 uM
[29] = molecular target: TGF-beta receptor type-1 (Homo sapiens) (UniProt P36897); test: Inhibition of TGFBR1 at 10 uM
Sequence of TGF-beta receptor type-1 (Homo sapiens) (P36897 whole entry): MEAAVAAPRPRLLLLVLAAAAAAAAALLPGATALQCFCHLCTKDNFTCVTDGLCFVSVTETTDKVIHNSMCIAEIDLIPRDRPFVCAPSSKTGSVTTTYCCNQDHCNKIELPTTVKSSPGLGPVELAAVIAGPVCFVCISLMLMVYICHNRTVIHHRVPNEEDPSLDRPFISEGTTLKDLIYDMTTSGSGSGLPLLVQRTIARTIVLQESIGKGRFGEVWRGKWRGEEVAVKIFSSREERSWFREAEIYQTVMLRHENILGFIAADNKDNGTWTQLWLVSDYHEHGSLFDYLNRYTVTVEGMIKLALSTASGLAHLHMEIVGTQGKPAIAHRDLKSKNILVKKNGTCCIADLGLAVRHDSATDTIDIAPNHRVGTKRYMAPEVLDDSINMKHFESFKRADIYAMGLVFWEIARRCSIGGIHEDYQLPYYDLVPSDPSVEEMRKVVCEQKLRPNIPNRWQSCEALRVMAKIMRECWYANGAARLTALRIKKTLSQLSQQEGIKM

[30] = molecular target: Wee1-like protein kinase 2 (Homo sapiens) (UniProt P0C1S8); test: Inhibition of WEE2 at 10 uM; details: values are per cent of control
[31] = molecular target: Cyclin-dependent kinase 15 (Homo sapiens) (UniProt Q96Q40); test: Inhibition of PFTAIRE2 at 10 uM; details: values are per cent of control
[32] = molecular target: Serine/threonine-protein kinase pim-3 (Homo sapiens) (UniProt Q86V86); test: Inhibition of PIM3 at 10 uM
[33] = molecular target: Phosphatidylinositol 5-phosphate 4-kinase type-2 beta (Homo sapiens) (UniProt P78356); test: Inhibition of PIP5K2B at 10 uM
[34] = molecular target: Protein kinase C epsilon type (Homo sapiens) (UniProt Q02156); test: Inhibition of PRKCE at 10 uM
[35] = molecular target: RAF proto-oncogene serine/threonine-protein kinase (Homo sapiens) (UniProt P04049); test: Inhibition of RAF1 at 10 uM; details: values are per cent of control
[36] = molecular target: Serine/threonine-protein kinase RIO1 (Homo sapiens) (UniProt Q9BRS2); test: Inhibition of RIOK1 at 10 uM
Sequence of Serine/threonine-protein kinase RIO1 (Homo sapiens) (Q9BRS2 whole entry): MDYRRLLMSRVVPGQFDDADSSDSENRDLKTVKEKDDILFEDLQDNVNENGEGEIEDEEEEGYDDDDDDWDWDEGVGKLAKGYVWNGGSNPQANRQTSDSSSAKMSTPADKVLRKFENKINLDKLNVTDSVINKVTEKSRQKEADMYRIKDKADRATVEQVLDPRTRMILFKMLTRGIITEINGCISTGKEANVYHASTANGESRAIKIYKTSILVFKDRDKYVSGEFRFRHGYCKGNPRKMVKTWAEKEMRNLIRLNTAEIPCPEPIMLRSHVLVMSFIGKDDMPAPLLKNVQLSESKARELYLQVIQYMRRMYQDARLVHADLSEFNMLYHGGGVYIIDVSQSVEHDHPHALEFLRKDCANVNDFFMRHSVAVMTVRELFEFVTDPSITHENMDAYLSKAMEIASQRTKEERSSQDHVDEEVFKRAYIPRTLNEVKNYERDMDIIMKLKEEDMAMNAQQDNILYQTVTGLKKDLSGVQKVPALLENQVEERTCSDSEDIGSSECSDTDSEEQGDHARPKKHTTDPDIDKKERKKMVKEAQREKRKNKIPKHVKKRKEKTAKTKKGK

[37] = molecular target: Citron Rho-interacting kinase (Homo sapiens) (UniProt O14578); test: Inhibition of CIT at 10 uM; values are per cent of control
Sequence of Citron Rho-interacting kinase (Homo sapiens) (O14578 whole entry): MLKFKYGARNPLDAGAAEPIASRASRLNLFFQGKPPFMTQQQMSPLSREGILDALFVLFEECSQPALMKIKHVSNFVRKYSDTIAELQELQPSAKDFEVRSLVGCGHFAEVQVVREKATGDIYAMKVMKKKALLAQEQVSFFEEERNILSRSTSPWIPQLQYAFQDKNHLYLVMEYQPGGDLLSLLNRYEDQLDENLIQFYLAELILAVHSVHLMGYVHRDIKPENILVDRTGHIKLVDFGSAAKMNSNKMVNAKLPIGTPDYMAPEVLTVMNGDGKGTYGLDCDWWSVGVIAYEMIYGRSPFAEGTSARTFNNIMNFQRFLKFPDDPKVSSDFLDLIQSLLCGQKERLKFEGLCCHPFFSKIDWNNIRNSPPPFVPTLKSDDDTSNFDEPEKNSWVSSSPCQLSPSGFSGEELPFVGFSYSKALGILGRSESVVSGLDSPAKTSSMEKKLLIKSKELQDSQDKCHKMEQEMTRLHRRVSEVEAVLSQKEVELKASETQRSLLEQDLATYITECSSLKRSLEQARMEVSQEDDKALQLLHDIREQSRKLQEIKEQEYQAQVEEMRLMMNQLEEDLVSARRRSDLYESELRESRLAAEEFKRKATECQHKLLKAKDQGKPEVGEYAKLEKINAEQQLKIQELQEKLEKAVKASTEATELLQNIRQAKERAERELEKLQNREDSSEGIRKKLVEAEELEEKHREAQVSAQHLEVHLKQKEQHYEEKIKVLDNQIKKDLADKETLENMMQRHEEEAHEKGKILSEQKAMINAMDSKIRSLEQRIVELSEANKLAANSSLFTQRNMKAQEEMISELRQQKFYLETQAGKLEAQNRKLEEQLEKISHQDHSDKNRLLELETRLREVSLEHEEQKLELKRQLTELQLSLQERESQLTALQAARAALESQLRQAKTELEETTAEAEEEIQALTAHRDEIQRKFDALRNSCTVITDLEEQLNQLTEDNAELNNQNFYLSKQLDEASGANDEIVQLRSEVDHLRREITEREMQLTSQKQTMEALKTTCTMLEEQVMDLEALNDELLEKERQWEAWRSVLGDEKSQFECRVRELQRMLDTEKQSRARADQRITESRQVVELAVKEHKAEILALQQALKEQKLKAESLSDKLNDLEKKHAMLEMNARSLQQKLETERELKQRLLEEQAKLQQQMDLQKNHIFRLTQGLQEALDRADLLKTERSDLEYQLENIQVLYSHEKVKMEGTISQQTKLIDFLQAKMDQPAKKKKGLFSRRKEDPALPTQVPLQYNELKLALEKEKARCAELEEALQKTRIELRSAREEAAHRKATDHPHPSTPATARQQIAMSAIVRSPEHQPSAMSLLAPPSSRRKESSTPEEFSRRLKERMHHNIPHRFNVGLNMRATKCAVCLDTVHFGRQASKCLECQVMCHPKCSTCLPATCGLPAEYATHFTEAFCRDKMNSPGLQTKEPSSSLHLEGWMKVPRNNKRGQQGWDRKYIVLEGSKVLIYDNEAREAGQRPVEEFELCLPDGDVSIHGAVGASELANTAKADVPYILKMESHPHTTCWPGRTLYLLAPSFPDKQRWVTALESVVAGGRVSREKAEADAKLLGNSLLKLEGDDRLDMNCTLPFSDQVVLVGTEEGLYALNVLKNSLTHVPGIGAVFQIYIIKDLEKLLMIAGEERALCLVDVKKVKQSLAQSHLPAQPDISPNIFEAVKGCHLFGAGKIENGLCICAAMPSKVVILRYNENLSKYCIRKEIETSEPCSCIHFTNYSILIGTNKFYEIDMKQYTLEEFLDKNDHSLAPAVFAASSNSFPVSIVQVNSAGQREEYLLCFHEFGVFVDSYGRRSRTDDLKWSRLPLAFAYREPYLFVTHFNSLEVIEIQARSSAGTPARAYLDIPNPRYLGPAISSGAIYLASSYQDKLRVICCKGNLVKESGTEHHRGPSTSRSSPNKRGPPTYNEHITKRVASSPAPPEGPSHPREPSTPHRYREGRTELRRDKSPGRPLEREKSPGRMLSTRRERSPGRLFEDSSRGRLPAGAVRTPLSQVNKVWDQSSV

[38] = molecular target: Serine/threonine-protein kinase 10 (Homo sapiens) (UniProt O94804); test: Inhibition of LOK at 10 uM; values are per cent of control
[39] = molecular target: Proto-oncogene tyrosine-protein kinase Src (Homo sapiens) (UniProt P12931); test: Inhibition of SRC at 10 uM; values are per cent of control
[40] = molecular target: NUAK family SNF1-like kinase 1 (Homo sapiens) (UniProt O60285); test: Inhibition of ARK5 at 10 uM; values are per cent of control
[41] = molecular target: Cyclin-dependent kinase 2 (Homo sapiens) (UniProt P24941); test: Inhibition of CDK2 at 10 uM; values are per cent of control
[42] = molecular target: Serine/threonine-protein kinase BRSK2 (Homo sapiens) (UniProt Q8IWQ3); test: Inhibition of BRSK2 at 10 uM; values are per cent of control
[43] = molecular target: Serine/threonine-protein kinase Chk1 (Homo sapiens) (UniProt O14757); test: Inhibition of CHEK1 at 10 uM; values are per cent of control
[44] = tested on: Proto-oncogene tyrosine-protein kinase receptor Ret (Homo sapiens), P07949 [M918T]; test: Inhibition of RET M918T mutant at 10 uM; values are per cent of control

CCN1CCN(Cc2ccc(NC(=O)c3ccc(C)c(C#Cc4cnc5[nH]ccc5c4)c3)cc2C(F)(F)F)CC1
EC50 (BaF3 [1]): < 1 nM | EC50 (BaF3 [2]): 1000 nM | residual binding, % of control [3]: 59% | residual binding, % of control [4]: 0.85% | residual binding, % of control [5]: 0.2% | residual binding, % of control [6]: 11% | residual binding, % of control [7]: 30% | residual binding, % of control [8]: 100% | residual binding, % of control [9]: 100% | residual binding, % of control [10]: 100% | residual binding, % of control [11]: 75% | residual binding, % of control [12]: 100% | residual binding, % of control [13]: 0.6% | residual binding, % of control [14]: 0.35% | residual binding, % of control [15]: 26% | residual binding, % of control [16]: 54% | residual binding, % of control [17]: 0.85% | residual binding, % of control [18]: 100% | residual binding, % of control [19]: 25% | residual binding, % of control [20]: 0% | residual binding, % of control [21]: 61% | residual binding, % of control [22]: 1.6% | residual binding, % of control [23]: 82% | inhibition [24]: 62% | inhibition [25]: 85% | inhibition [26]: 0.15% | inhibition [27]: 1% | inhibition [28]: 2.4% | inhibition [29]: 100% | residual binding, % of control [30]: 20% | residual binding, % of control [31]: 2% | inhibition [32]: 100% | inhibition [33]: 7.7% | inhibition [34]: 78% | residual binding, % of control [35]: 0.95% | inhibition [36]: 53% | level, % of control [37]: 0% | level, % of control [38]: 0% | % of control [39]: 0.05% | level, % of control [40]: 95% | level, % of control [41]: 13% | level, % of control [42]: 90% | level, % of control [43]: 88% | level, % of control [44]: 0%

CCN1CCN(Cc2ccc(NC(=O)c3ccc(C)c(C#Cc4cccnc4)c3)cc2C(F)(F)F)CC1
EC50 (BaF3 [1]): < 1 nM | EC50 (BaF3 [2]): 1590 nM | residual binding, % of control [3]: 99% | residual binding, % of control [4]: 0.85% | residual binding, % of control [5]: 0.15% | residual binding, % of control [6]: 12% | residual binding, % of control [7]: 59% | residual binding, % of control [8]: 84% | residual binding, % of control [9]: 100% | residual binding, % of control [10]: 88% | residual binding, % of control [11]: 89% | residual binding, % of control [12]: 100% | residual binding, % of control [13]: 1.2% | residual binding, % of control [14]: 0.4% | residual binding, % of control [15]: 100% | residual binding, % of control [16]: 51% | residual binding, % of control [17]: 0.5% | residual binding, % of control [18]: 100% | residual binding, % of control [19]: 18% | residual binding, % of control [20]: 0% | residual binding, % of control [21]: 9% | residual binding, % of control [22]: 3% | residual binding, % of control [23]: 100% | inhibition [24]: 81% | inhibition [25]: 100% | inhibition [26]: 0.4% | inhibition [27]: 13% | inhibition [28]: 60% | inhibition [29]: 100% | residual binding, % of control [30]: 100% | residual binding, % of control [31]: 6.4% | inhibition [32]: 100% | inhibition [33]: 58% | inhibition [34]: 54% | residual binding, % of control [35]: 0.5% | inhibition [36]: 90% | level, % of control [37]: 0% | level, % of control [38]: 0% | % of control [39]: 0% | level, % of control [40]: 100% | level, % of control [41]: 10% | level, % of control [42]: 81% | level, % of control [43]: 80% | level, % of control [44]: 0%
